According to paper PMC6362118, “Pharmacophore-guided discovery of CDC25 inhibitors causing cell cycle arrest and tumor regression” (Scientific Reports, 2019):

How the values were obtained:
CDC25A = molecular target: T1, CDC25A (Homo sapiens, UniProt P30304); test: Enzymatic assay (OMFP substrate) on recombinant CDC25A; assay type: biochemical
T1 construct: GST (pGEX vector) (N); made in house; host or cells: E. coli BL21
T1 sequence (P30304 1-524): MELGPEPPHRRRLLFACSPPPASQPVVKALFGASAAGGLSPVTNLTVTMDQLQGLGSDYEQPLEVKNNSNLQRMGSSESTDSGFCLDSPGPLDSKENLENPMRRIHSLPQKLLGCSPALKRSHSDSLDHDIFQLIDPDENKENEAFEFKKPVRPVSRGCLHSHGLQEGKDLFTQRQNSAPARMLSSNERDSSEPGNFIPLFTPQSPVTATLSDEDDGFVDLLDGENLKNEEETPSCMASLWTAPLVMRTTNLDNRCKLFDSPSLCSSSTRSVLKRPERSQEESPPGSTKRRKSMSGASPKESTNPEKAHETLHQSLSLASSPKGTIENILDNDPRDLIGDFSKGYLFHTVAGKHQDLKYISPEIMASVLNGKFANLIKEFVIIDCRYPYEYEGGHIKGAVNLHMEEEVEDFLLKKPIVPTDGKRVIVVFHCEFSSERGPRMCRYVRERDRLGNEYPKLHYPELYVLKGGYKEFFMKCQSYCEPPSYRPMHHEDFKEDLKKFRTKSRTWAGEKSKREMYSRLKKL
Experimental: 57 UPD compounds were dissolved in DMSO at 10 mM stock concentration and stored in
60 Expression and purification of CDC25 phosphatases - CDC25A (kind gift of I.
61 Hoffmann, Heidelberg, Germany), CDC25B and CDC25C (kind gift of B. Gabrielli,
62 Queensland, Australia) in pGEX were expressed in E. coli BL21 cells and purified on 1
63 ml Glutathione Sepharose 4 Fast Flow columns as described 1.
(§1) 65 Enzymatic assays - CDC25A, CDC25B and CDC25C were appropriately diluted in 10
(§2) 66 mM Tris-HCl pH 8.0, 50 mM NaCl and assayed in 20 mM Tris-HCl pH 8.0, 75 mM
(§3) 67 NaCl, 0.5 mM EGTA, 1 mM DTT, 0.1 mg/ml BSA and defined concentrations of
(§4) 68 compounds. Reactions were started by addition of the substrate OMFP (0.1 mM). Assays
(§5) 69 were carried out at room temperature in duplicate or triplicate using transparent-bottom,
(§6) 70 V-shaped 96 well plates and read at defined intervals on a Molecular Devices
(§7) 71 SpectraMax microplate reader (ex: 490 nm / em: 525 nm). IC50 and kinetic parameters
(§8) 72 calculated from Lineweaver-Burk double-reciprocal plots of the data were obtained using
73 GraphPad Prism software. […]

HeLa cells [1] = test: Cell viability assay on HeLa cells; assay type: cell-based; settings: 48h treatment
Experimental: (§9) 75 Cell culture - Wild-type HeLa and Kyoto HeLa cells stably expressing mCherry-H2B
(§10) 76 were maintained in DMEM+L-Glutamine (Gibco, Life Technologies, USA)
(§11) 77 supplemented with 5% fetal calf serum (FCS) (Gibco) and penicillin-streptomycin (100
78 U/ml - 100 µg/ml) (Gibco). […]
87 Cell viability assays - Compounds viability upon 48h treatment with the compounds was
88 assessed as described 4. Data were plotted with Prism 7® and analyzed by non-linear
89 regression. Comparison of single curve fitting to all data set within an experiment was
90 performed with the extra sum-of-squares F-test to determine P values. […]

[2] = parameters: method as in PMID 17970046; settings: due to rapid metabolism; cited from earlier work
HeLa cells [3] = test: Flow cytometric analysis of cell cycle progression (DNA content) in HeLa cells; assay type: cell-based
Experimental: Reactions were started by addition of the substrate OMFP (0.1 mM). Assays 69 were carried out at room temperature in duplicate or triplicate using transparent-bottom, 70 V-shaped 96 well plates and read at defined intervals on a Molecular Devices 71 SpectraMax microplate reader (ex: 490 nm / em: 525 nm). IC50 and kinetic parameters 72 calculated from Lineweaver-Burk double-reciprocal plots of the data were obtained using 73 GraphPad Prism software. 74 75 Cell culture - Wild-type HeLa and Kyoto HeLa cells stably expressing mCherry-H2B 76 were maintained in DMEM+L-Glutamine (Gibco, Life Technologies, USA) 77 supplemented with 5% fetal calf serum (FCS) (Gibco) and penicillin-streptomycin (100 […] A549 and Colo741 were grown and maintained like HeLa 79 cells but with 10% FCS. HCT116 were maintained in McCoy's medium supplemented 80 with 10% FCS and penicillin-streptomycin. U2OS-Tet-OFF cells expressing HA-CDC25 81 were grown and maintained in DMEM+L-Glutamine, 10% Tet-free FCS and penicillin- 82 streptomycin in the presence or the absence of 4 μg/ml tetracycline (Sigma, T7660). 83 84 Cell synchronization - Cell synchronization was performed by double thymidine block- 85 release protocol 2 or nocodazole treatment 3 and verified by flow cytometry. 86 87 Cell viability assays - Compounds viability upon 48h treatment with the compounds was 88 assessed as described 4. Data were plotted with Prism 7® and analyzed by non-linear 89 regression. Comparison of single curve fitting to all data set within an experiment was 90 performed with the extra sum-of-squares F-test to determine P values. 91 92 Western blotting - Cell lysis and immunoblot analysis were performed as previously 93 described 5. […] Cells were washed with PBS, resuspended […] To 100 quantify phosphorylation of CDK1 at Tyr15 and H2AX at S139, cells were harvested and 101 examined as described 6. Samples were measured on an AttuneTM NxT Cytometer 102 (ThermoFisher Scientific, Carlsbad, CA, USA) and data were analyzed with FlowJo® 103 software v10 (FlowJo, LLC, Ashland, OR, USA). 104 105 Real Time qRT-PCR - Organoids were lysed in Tri-Reagent (Sigma) as previously 106 described 7 and total RNA was isolated as described by manufacturer's instructions. For […] 108 High Fidelity cDNA Synthesis kit (Roche). Real-time quantitative PCR reactions were 109 performed in three independent biological replicates, each with technical triplicate, using 110 the Applied Biosystems SYBR Green Kit and monitored by the ABI Prism 7900HT 111 system (Applied Biosystem). The following primers were used: 112 Lgr5: Forward [NT] and Reverse 5'- […] 114 Lysozyme: Forward [NT] and Reverse 5'- 115 [NT]3' 116 Cryptdin: Forward [NT] and Reverse 5'- 117 [NT]-binding protein (TBP): Forward [NT] and 119 Reverse [NT] 120 […] 122 amplification curves and the melting temperature analysis of the final amplification […] 4

HeLa cells [4] = test: Time-lapse microscopy of mitosis in synchronized HeLa cells; assay type: cell-based
Experimental: Cells were grown in 35 mm CellView™ cell culture dishes with glass bottom (# 627870, Greiner-BioOne) at a density of 2.5 × 10^5 cells/ml in a humidified cell incubator maintained at 37 °C and 5% CO2. Cell were viewed by phase contrast microscopy with a 10x objective using an Olympus IX 81 motorized inverted microscope (Olympus, Hamburg, Germany) equipped with external temperature control chamber and CO2 bottle to maintain cells at 37 °C with 5% CO2. Transition through mitosis was documented by acquisition of four frames per hour over a period of 14 h using a CCD camera (Orca AG, Hamamatsu) and cellR® software (Olympus). HeLa-Kyoto cells (mCherry-H2B/EGFP-α-tubulin) were visualized by fluorescence microscopy with an Olympus IX 81 microscope using a 10x objective and selecting Ex. = 492 ± 18 nm/Em. = 535 ± 50 nm for the green channel and Ex. = 572 ± 23 nm/Em. = 645 ± 75 nm for the red channel.

[5] = system: U2OS Tet-OFF cells expressing HA-CDC25A; test: Cell viability of U2OS Tet-OFF cells overexpressing HA-CDC25A; assay type: cell-based; settings: grown in the absence of tetracycline (HA-CDC25A induced)
Experimental: as §1, §2, §3, §4, §5, §6, §7, §8
73 GraphPad Prism software.
as §9, §10, §11
78 U/ml - 100 µg/ml) (Gibco). A549 and Colo741 were grown and maintained like HeLa
79 cells but with 10% FCS. HCT116 were maintained in McCoy’s medium supplemented
80 with 10% FCS and penicillin-streptomycin. U2OS-Tet-OFF cells expressing HA-CDC25
81 were grown and maintained in DMEM+L-Glutamine, 10% Tet-free FCS and penicillin- […]
88 assessed as described 4. Data were plotted with Prism 7® and analyzed by non-linear […]

mode of action (reversibility) (CDC25A; pre-incubation at ~3x IC50 (5 μM UPDs, 2 µM NSC663284), 10-fold dilution) | IC50 (HeLa cells [1]) [µM] | remaining activity at 20 µM (CDC25A; compound 20 µM, relative to DMSO control, read-out: % remaining activity ± SD (Table S2, second round of selection)) [%] | IC50 (HeLa cells [1]; Homo sapiens) [µM] | SMILES | antitumor activity in mice [2] | effect on cell cycle distribution (DNA content) (HeLa cells [3]; asynchronous HeLa cells, 10 μM, 15 h) | effect on the G2/M transition (HeLa cells [3]; double-thymidine synchronized HeLa, 10 μM added 5 h upon release, analysed 12 h post-release) | execution of mitosis (time-lapse) (HeLa cells [4]; HeLa, 10 μM added 5 h upon release from 2x thymidine block, monitored 14 h) | execution of mitosis at low dose (time-lapse) (HeLa cells [4]; synchronized HeLa Kyoto cells (mCherry-H2B, GFP-α-tubulin), 5 μM) | sensitivity of CDC25A overexpressing cells (viability) [5]
irreversible | 2.57 | – | – | O=C1C(Cl)=C(NCCN2CCOCC2)C(=O)c2ncccc21 [NSC-663284, reference compound] | minimal antitumor activity | – | – | – | – | –
– | – | 0.1 ± 0.3 | 0.9 | Cc1c(O)ccc(C2=CC(=O)c3cccc(O)c3C2=O)c1O [UPD-787, 8-hydroxy-2-(2,4-dihydroxy-3-methylphenyl) naphthalene-1,4-dione] | – | accumulation of cells at G2/M | accretion of the G2/M peak | could not complete mitotic transition and died before reaching G1 | failed attempt to round up and execute mitosis, which was followed by membrane blebbing and death | remained sensitive
